Laboratory results from US20150020915A1, “Antiperspirant Spray Devices and Compositions” (The Procter & Gamble Company, priority 2013, published 2015).

Description: (§1) Solubility may be determined by measuring the amount of light transmittance (a light transmittance value) through a simple mixture of the non-volatile silicone fluid and liquid activation enhancer at the same weight/weight concentrations as in a final antiperspirant composition.
as §1, with “Solubility of a liquid activation enhancer in a non-volatile silicone” for “Solubility”, “(light” for “(a light”
The Spectronic Genesys 10 V is utilizes a tungsten-halogen light source and has a spectral bandwidth of 5 nm, a wavelength range of 325 to 1100 nm, accuracy of ±1 nm and a repeatability of ±0.5 nm. Readouts include absorbance, transmittance and concentration. The spectrophotometer is set to 640 nm wavelength and the percent transmittance mode/readout. Polystyrene spectrometer cuvettes having a 1 cm optical light path and transmittance between ˜340 nm and ˜900 nm are used. One suitable example of a spectrometer cuvette is available from VWR International LLC under Catalog #97000-584 having a 2.5 to 4.5 ml capacity. The spectrophotometer is calibrated according to the manufacturer's instructions using a reference cuvette and composition comprised of just the non-volatile silicone fluid of interest. For example, if the test composition comprises 50 centistoke dimethicone and 15% w/w of isopropyl myristate, then the spectrometer is calibrated using a cuvette containing just 50 centistoke dimethicone. Sample cuvettes are filled sufficiently with a test composition of a non-volatile silicone fluid and liquid activation enhancer so that the light path of the spectrophotometer passes through the test composition in the cuvette. The sample cuvettes are shaken well just prior to taking a light transmittance reading.

Row | Compound | light transmittance value | solubility in 50 centistoke dimethicone (in words)
1 | CCCCCCCCCCCCCCCCCC(=O)OCCCC [butyl stearate] | about 100% | –
2 | CCCCCCCCCCCCCC(C)C [isohexadecane] | about 100% | soluble
3 | CCCCCCCCCCCCCC(=O)OC(C)C [isopropyl myristate] | about 101% | –
4 | CCCCCCCCCCCCCCCC(=O)OC(C)C [isopropyl palmitate] | about 101% | –
5 | CCCCCCCCCCC(CO)CCCCCCCC (centres unmarked) [octyldodecanol] | – | soluble in the 50 centistoke dimethicone at some (lower) concentrations
6 | PPG-14 butyl ether | – | insoluble
7 | mineral oil | – | soluble in 50 centistoke dimethicone at some (lower) concentrations
